Measurements published in BigSolDB 2.1.

CCCCCCCC[n+]1csc2ccccc21.F[P-](F)(F)(F)(F)F
Conditions	solubility (mole fraction)
in furfural, 271.1 K	0.33
in furfural, 274.97 K	0.35
in furfural, 278.47 K	0.38
in furfural, 281.46 K	0.396
in furfural, 285.15 K	0.423
in furfural, 287.37 K	0.445
in furfural, 289.48 K	0.471
in furfural, 292.47 K	0.5
in furfural, 296.07 K	0.541
in furfural, 300.95 K	0.597
in furfural, 305.47 K	0.64
in furfural, 311.66 K	0.711
in furfural, 314.97 K	0.745
in furfural, 318.86 K	0.786
in furfural, 321.52 K	0.81
in furfural, 323.8 K	0.829
in furfural, 327.08 K	0.858
in water, 278.15 K	1.79e-05
in water, 283.2 K	2.1e-05
in water, 290.15 K	2.61e-05
in water, 294.15 K	3.12e-05
in water, 300.15 K	4.01e-05
in water, 308.15 K	5.5e-05
in water, 313.15 K	7e-05
in water, 318.15 K	9.11e-05
in water, 323.15 K	0.000107
in water, 328.15 K	0.000128
in water, 333.15 K	0.000142
in water, 338.15 K	0.000163
in water, 342.95 K	0.000179
in water, 348.15 K	0.000196
in water, 352.75 K	0.000212
in water, 358.05 K	0.000235
in water, 363.15 K	0.000261
in water, 367.75 K	0.000285

CCCCC[n+]1csc2ccccc21.F[P-](F)(F)(F)(F)F
Conditions	solubility (mole fraction)
in furfural, 272.3 K	0.085
in furfural, 277.25 K	0.0866
in furfural, 284.65 K	0.0981
in furfural, 290.85 K	0.108
in furfural, 296.15 K	0.118
in furfural, 302.85 K	0.131
in furfural, 313.5 K	0.151
in furfural, 321.04 K	0.171
in furfural, 324.75 K	0.189
in furfural, 330 K	0.214
in furfural, 335.04 K	0.239
in water, 278.15 K	2.36e-05
in water, 282.35 K	2.97e-05
in water, 290.15 K	4.01e-05
in water, 295.15 K	4.89e-05
in water, 302.15 K	6.5e-05
in water, 308.15 K	8.63e-05
in water, 313.25 K	0.00011
in water, 318.15 K	0.00013
in water, 323.15 K	0.000153
in water, 328.15 K	0.000189
in water, 330.05 K	0.000205
in water, 333.15 K	0.000226
in water, 338.05 K	0.000259
in water, 342.75 K	0.000293
in water, 348.15 K	0.000356
in water, 353.15 K	0.000466
in water, 357.95 K	0.000676
in water, 363.15 K	0.000878
in water, 368.05 K	0.00109

CCCCCCC[n+]1csc2ccccc21.F[P-](F)(F)(F)(F)F
Conditions	solubility (mole fraction)
in furfural, 272.2 K	0.27
in furfural, 274.55 K	0.276
in furfural, 280.85 K	0.297
in furfural, 284.65 K	0.318
in furfural, 291.71 K	0.35
in furfural, 296.7 K	0.38
in furfural, 301.2 K	0.41
in furfural, 304.21 K	0.433
in furfural, 307.6 K	0.451
in furfural, 310.41 K	0.47
in furfural, 313.72 K	0.487
in furfural, 315.6 K	0.503
in furfural, 318.68 K	0.532
in furfural, 322.88 K	0.561
in furfural, 325.58 K	0.582
in furfural, 327.81 K	0.601
in furfural, 329.99 K	0.622
in furfural, 331.87 K	0.644
in water, 278.15 K	2.26e-05
in water, 282.35 K	2.91e-05
in water, 288.15 K	3.5e-05
in water, 294.15 K	4.2e-05
in water, 300.15 K	5.5e-05
in water, 308.15 K	7.07e-05
in water, 313.05 K	8.48e-05
in water, 318.15 K	0.000106
in water, 323.15 K	0.000124
in water, 328.15 K	0.000155
in water, 333.15 K	0.000186
in water, 338.05 K	0.00023
in water, 342.75 K	0.000272
in water, 348.45 K	0.000311
in water, 353.15 K	0.000357
in water, 358.15 K	0.00041
in water, 363.35 K	0.000464
in water, 368.55 K	0.000521

CCCC[n+]1csc2ccccc21.F[P-](F)(F)(F)(F)F
Conditions	solubility (mole fraction)
in furfural, 273.3 K	0.155
in furfural, 281.45 K	0.185
in furfural, 288.25 K	0.205
in furfural, 298.35 K	0.246
in furfural, 302.93 K	0.263
in furfural, 311 K	0.3
in furfural, 317.62 K	0.333
in furfural, 324.5 K	0.364
in furfural, 331.25 K	0.393
in water, 278.15 K	6.76e-05
in water, 283.2 K	8.72e-05
in water, 288.1 K	0.000113
in water, 293.05 K	0.000139
in water, 298.15 K	0.000168
in water, 302.95 K	0.000204
in water, 308.55 K	0.000237
in water, 313.15 K	0.000297
in water, 318.1 K	0.000355
in water, 323 K	0.000405
in water, 327.95 K	0.000478
in water, 333.1 K	0.0006
in water, 338.05 K	0.000721
in water, 343.1 K	0.000839
in water, 348 K	0.001
in water, 353.15 K	0.00116
in water, 357.9 K	0.00142
in water, 363 K	0.00175
in water, 367.9 K	0.00198

CCCCCC[n+]1csc2ccccc21.F[P-](F)(F)(F)(F)F
Conditions	solubility (mole fraction)
in furfural, 273.25 K	0.201
in furfural, 276 K	0.208
in furfural, 282.04 K	0.234
in furfural, 290.19 K	0.269
in furfural, 296.05 K	0.297
in furfural, 301.03 K	0.321
in furfural, 305.08 K	0.345
in furfural, 308.23 K	0.366
in furfural, 311.95 K	0.385
in furfural, 315.95 K	0.406
in furfural, 318.39 K	0.424
in furfural, 321.62 K	0.451
in furfural, 325.05 K	0.479
in furfural, 327.64 K	0.513
in furfural, 330.95 K	0.55
in furfural, 333.5 K	0.581
in furfural, 335.75 K	0.616
in water, 278.15 K	3.17e-05
in water, 282.75 K	3.31e-05
in water, 289.15 K	4.3e-05
in water, 294.15 K	5.12e-05
in water, 298.15 K	6.5e-05
in water, 303.15 K	7.64e-05
in water, 308.15 K	9.38e-05
in water, 313.15 K	0.000109
in water, 318.15 K	0.000129
in water, 323.15 K	0.000156
in water, 328.15 K	0.00021
in water, 330.15 K	0.000235
in water, 333.05 K	0.000256
in water, 338.05 K	0.000322
in water, 342.75 K	0.000404
in water, 347.95 K	0.000463
in water, 352.95 K	0.000543
in water, 357.75 K	0.000595
in water, 362.95 K	0.000659
in water, 367.95 K	0.000743
